Assay results from patent publication US10149879B2 (priority 2014, dated 2018).

Columns and labels:
[1] = test system: 3T3-L1 cells; assay: Anti-oxidant activity in 3T3-L1 cells challenged with H2O2; assay type: cell-based; set-up: Anti-oxidant activity, cells challenged with H2O2: scale not given here; conditions: for Anti-oxidant activity, cells challenged with H2O2: 3T3-L1; for protection against H2O2 induced cellular oxidative damage: 3T3-L1 cells
Source text: Anti-Oxidant Activity in 3T3-L1 Cells Challenged with H2O2 Berberin and Palmatine
Anti-Oxidant Activity in 3T3-L1 Cells Challenged with H2O2 Berberin and Quercetin

[2] = test system: L6-myotubes; assay: Anti-diabetic activity (glucose consumption) in L6-myotubes; assay type: cell-based; set-up: Anti-diabetic activity (glucose consumption): unit not given here; conditions: for Anti-diabetic activity (glucose consumption): L6-myotubes, control 1.00
[3] = test system: 3T3-L1 cells; assay: Cell viability assay in 3T3-L1 cells; conditions: for Cell viability: 3T3-L1, control 100.00
[4] = test system: βTC6 insulinoma cell; assay: Anti-oxidant activity in βTC6 insulinoma cell challenged with H2O2; assay type: cell-based; set-up: Anti-oxidant activity, cells challenged with H2O2: unit not given here; conditions: for Anti-oxidant activity, cells challenged with H2O2: βTC6
Source text: Anti-Oxidant Activity in βTC6 Insulinoma Cell Challenged with H2O2 Berberin and Quercetin—
Anti-Oxidant Activity in βTC6 Insulinoma Cell Challenged with H2O2 Berberin and Palmatine—

[5] = test system: L6 cells; assay: Anti-oxidant activity in L6 cells challenged with H2O2; assay type: cell-based; set-up: Anti-oxidant activity, cells challenged with H2O2: unit not given here; conditions: for Anti-oxidant activity, cells challenged with H2O2: L6; for protection against H2O2 induced cellular oxidative damage: L6 cells
Source text: Anti-Oxidant Activity in L6 Cells Challenged with H2O2 Berberin and Palmatine
Anti-Oxidant Activity in L6 Cells Challenged with H2O2—Berberin and Quercetin

[6] = target: T1, Aldose reductase (Rattus norvegicus, UniProt P07943); assay: Aldose reductase activity; assay type: in vivo, rats; conditions: H.G. animals; standard drug
T1 construct: from tissue; STZ-induced diabetic animals
Experimental: Before utilizing the test drug for human consumption the pre-clinical safety and efficacy profile of single plant candidate extract as well as in combined form was conducted following standard norms. […] The effect of test drug was assessed on glucose levels, insulin level, glycosylated hemoglobin, and pro-inflammatory cytokines, and the most important bio-marker neopterin including various neuro-psychological assessments. […] Aldose Reductase Activity and Glycation of Hemoglobin Following Test Formulation Treatment

[7] = comparison with positive standard

**Q.** What does the source list for `COc1ccc2cc3[n+](cc2c1OC)CCc1cc2c(cc1-3)OCO2` [Berberin]?
**A.** Anti-oxidant activity, cells challenged with H2O2 ([1]; Co-incubated, 10 pM, control 50.00): 56.00 ± 3.35; Anti-oxidant activity, cells challenged with H2O2 ([1]; Co-incubated, 10 pg/ml, control 49.00): 53.00 ± 2.50; Anti-oxidant activity, cells challenged with H2O2 ([1]; Co-incubated, 100 pM, control 50.00): 58.96 ± 1.20; Anti-oxidant activity, cells challenged with H2O2 ([1]; Co-incubated, 100 pg/ml, control 49.00): 57.80 ± 2.50; Anti-oxidant activity, cells challenged with H2O2 ([1]; Co-incubated, 1 nM, control 50.00): 61.80 ± 1.80; Anti-oxidant activity, cells challenged with H2O2 ([1]; Co-incubated, 1 ng/ml, control 49.00): 65.15 ± 1.99; Anti-oxidant activity, cells challenged with H2O2 ([1]; Co-incubated, 10 nM, control 50.00): 63.00 ± 1.60; Anti-oxidant activity, cells challenged with H2O2 ([1]; Co-incubated, 100 nM, control 50.00): 63.38 ± 2.10; Anti-oxidant activity, cells challenged with H2O2 ([1]; Co-incubated, 100 ng/ml (first of two lines so printed, r7), control 49.00): 70.80 ± 3.25; Anti-oxidant activity, cells challenged with H2O2 ([1]; Co-incubated, 100 ng/ml (second line, r8), control 49.00): 77.50 ± 2.95; Anti-oxidant activity, cells challenged with H2O2 ([1]; Pre-incubated, 10 pM, control 50.00): 52.01 ± 2.80; Anti-oxidant activity, cells challenged with H2O2 ([1]; Pre-incubated, 10 pg/ml, control 49.00): 55.00 ± 2.00; Anti-oxidant activity, cells challenged with H2O2 ([1]; Pre-incubated, 100 pM, control 50.00): 55.76 ± 2.80; Anti-oxidant activity, cells challenged with H2O2 ([1]; Pre-incubated, 100 pg/ml, control 49.00): 58.00 ± 1.70; Anti-oxidant activity, cells challenged with H2O2 ([1]; Pre-incubated, 1 nM, control 50.00): 59.95 ± 2.10; Anti-oxidant activity, cells challenged with H2O2 ([1]; Pre-incubated, 1 ng/ml, control 49.00): 64.00 ± 1.90; Anti-oxidant activity, cells challenged with H2O2 ([1]; Pre-incubated, 10 nM, control 50.00): 61.13 ± 1.05; Anti-oxidant activity, cells challenged with H2O2 ([1]; Pre-incubated, 100 nM, control 50.00): 64.25 ± 2.30; Anti-oxidant activity, cells challenged with H2O2 ([1]; Pre-incubated, 100 ng/ml (first of two lines so printed, r7), control 49.00): 67.40 ± 3.70; Anti-oxidant activity, cells challenged with H2O2 ([1]; Pre-incubated, 100 ng/ml (second line, r8), control 49.00): 75.00 ± 4.15; protection against H2O2 induced cellular oxidative damage [1, 7]: potent protection; protection against H2O2 induced cellular oxidative damage ([1]; pM-nM doses): mild protection; Anti-diabetic activity (glucose consumption) ([2]; 1 nM): 1.38 ± 0.08; Anti-diabetic activity (glucose consumption) ([2]; 5 nM): 1.78 ± 0.08; Anti-diabetic activity (glucose consumption) ([2]; 25 nM): 1.98 ± 0.08; Anti-diabetic activity (glucose consumption) ([2]; 125 nM): 2.30 ± 0.08; Anti-diabetic activity (glucose consumption) ([2]; 625 nM): 2.50 ± 0.10; glucose consumption ([2]; differentiated L6-myotubes, dose dependent): accelerated glucose consumption; Cell viability ([3]; 10 pM): 99.50 ± 1.50; Cell viability ([3]; 100 pM): 99.99 ± 2.80; Cell viability ([3]; 1 nM): 99.88 ± 0.91; Cell viability ([3]; 10 nM): 98.25 ± 1.20; Cell viability ([3]; 100 nM): 97.69 ± 1.09; Cell viability ([3]; 1 μM): 90.68 ± 2.05; Cell viability ([3]; 10 μM): 75.12 ± 2.85; Cell viability ([3]; 100 μM): 62.54 ± 4.20; toxicity to the cell ([3]; 3T3-L1 cells, 1 μM): non-toxic; Anti-oxidant activity, cells challenged with H2O2 ([4]; Co-incubated, 1 pM, control 55.54): 54.53 ± 1.67; Anti-oxidant activity, cells challenged with H2O2 ([4]; Co-incubated, 1 pg/ml, control 55.64): 59.70 ± 2.00; Anti-oxidant activity, cells challenged with H2O2 ([4]; Co-incubated, 10 pM, control 55.54): 54.79 ± 2.95; Anti-oxidant activity, cells challenged with H2O2 ([4]; Co-incubated, 10 pg/ml, control 55.64): 64.14 ± 2.04; Anti-oxidant activity, cells challenged with H2O2 ([4]; Co-incubated, 100 pg/ml, control 55.64): 67.40 ± 1.43; Anti-oxidant activity, cells challenged with H2O2 ([4]; Co-incubated, 0.1 nM, control 55.54): 56.02 ± 2.82; Anti-oxidant activity, cells challenged with H2O2 ([4]; Co-incubated, 1 nM, control 55.54): 59.80 ± 1.30; Anti-oxidant activity, cells challenged with H2O2 ([4]; Co-incubated, 1 ng/ml, control 55.64): 76.57 ± 1.50; Anti-oxidant activity, cells challenged with H2O2 ([4]; Co-incubated, 10 nM, control 55.54): 60.75 ± 2.16; Anti-oxidant activity, cells challenged with H2O2 ([4]; Co-incubated, 10 ng/ml, control 55.64): 85.90 ± 2.00; Anti-oxidant activity, cells challenged with H2O2 ([4]; Pre-incubate, 1 pg/ml, control 55.64): 61.60 ± 2.00; Anti-oxidant activity, cells challenged with H2O2 ([4]; Pre-incubate, 10 pg/ml, control 55.64): 65.18 ± 1.98; Anti-oxidant activity, cells challenged with H2O2 ([4]; Pre-incubate, 100 pg/ml, control 55.64): 67.05 ± 2.45; Anti-oxidant activity, cells challenged with H2O2 ([4]; Pre-incubate, 1 ng/ml, control 55.64): 74.40 ± 1.40; Anti-oxidant activity, cells challenged with H2O2 ([4]; Pre-incubate, 10 ng/ml, control 55.64): 77.69 ± 2.10; Anti-oxidant activity, cells challenged with H2O2 ([4]; Pre-incubated, 1 pM, control 55.54): 57.52 ± 0.80; Anti-oxidant activity, cells challenged with H2O2 ([4]; Pre-incubated, 10 pM, control 55.54): 58.90 ± 2.87; Anti-oxidant activity, cells challenged with H2O2 ([4]; Pre-incubated, 0.1 nM, control 55.54): 60.12 ± 3.40; Anti-oxidant activity, cells challenged with H2O2 ([4]; Pre-incubated, 1 nM, control 55.54): 61.70 ± 1.60; Anti-oxidant activity, cells challenged with H2O2 ([4]; Pre-incubated, 10 nM, control 55.54): 64.20 ± 1.65; anti-oxidant activity ([4]; βTC6 cells challenged with hydrogen peroxide): potent anti-oxidant activity; protection against H2O2 induced cellular oxidative damage ([4]; βTC6 insulinoma cells): Mild Protection; Anti-oxidant activity, cells challenged with H2O2 ([5]; Co-incubated, 10 pM, control 60.10): 62.10 ± 4.40; Anti-oxidant activity, cells challenged with H2O2 ([5]; Co-incubated, 10 pg/ml, control 61.10): 60.40 ± 2.20; Anti-oxidant activity, cells challenged with H2O2 ([5]; Co-incubated, 100 pM, control 60.10): 63.97 ± 8.52; Anti-oxidant activity, cells challenged with H2O2 ([5]; Co-incubated, 100 pg/ml, control 61.10): 66.12 ± 2.70; Anti-oxidant activity, cells challenged with H2O2 ([5]; Co-incubated, 1 nM, control 60.10): 66.10 ± 5.67; Anti-oxidant activity, cells challenged with H2O2 ([5]; Co-incubated, 1 ng/ml, control 61.10): 70.07 ± 2.95; Anti-oxidant activity, cells challenged with H2O2 ([5]; Co-incubated, 10 nM, control 60.10): 69.40 ± 5.00; Anti-oxidant activity, cells challenged with H2O2 ([5]; Co-incubated, 10 ng/ml, control 61.10): 75.14 ± 0.90; Anti-oxidant activity, cells challenged with H2O2 ([5]; Co-incubated, 100 nM, control 60.10): 72.40 ± 3.03; Anti-oxidant activity, cells challenged with H2O2 ([5]; Co-incubated, 100 ng/ml, control 61.10): 77.51 ± 1.70; Anti-oxidant activity, cells challenged with H2O2 ([5]; Pre-incubated, 10 pM, control 60.10): 59.80 ± 6.60; Anti-oxidant activity, cells challenged with H2O2 ([5]; Pre-incubated, 10 pg/ml, control 61.10): 63.50 ± 1.00; Anti-oxidant activity, cells challenged with H2O2 ([5]; Pre-incubated, 100 pM, control 60.10): 60.40 ± 8.50; Anti-oxidant activity, cells challenged with H2O2 ([5]; Pre-incubated, 100 pg/ml, control 61.10): 69.40 ± 2.00; Anti-oxidant activity, cells challenged with H2O2 ([5]; Pre-incubated, 1 nM, control 60.10): 63.70 ± 7.25; Anti-oxidant activity, cells challenged with H2O2 ([5]; Pre-incubated, 1 ng/ml, control 61.10): 71.12 ± 1.12; Anti-oxidant activity, cells challenged with H2O2 ([5]; Pre-incubated, 10 nM, control 60.10): 68.60 ± 4.50; Anti-oxidant activity, cells challenged with H2O2 ([5]; Pre-incubated, 10 ng/ml, control 61.10): 78.98 ± 1.90; Anti-oxidant activity, cells challenged with H2O2 ([5]; Pre-incubated, 100 nM, control 60.10): 72.81 ± 5.70; Anti-oxidant activity, cells challenged with H2O2 ([5]; Pre-incubated, 100 ng/ml, control 61.10): 83.70 ± 1.70; protection against H2O2 induced cellular oxidative damage [5, 7]: potent protection; protection against H2O2 induced cellular oxidative damage ([5]; pM-nM doses): mild protection

**Q.** How did the Aldose reductase [6] turn out when `CN(C)C(=N)N=C(N)N` [Metformin] was run?
**A.** The Aldose reductase was 2.60 ± 0.75 μM of NADPH oxidized/g of protein.
